Measured values from patent EP4772530A1, “PEPTIDE TARGETING SOMATOSTATIN RECEPTOR, DRUG CONJUGATE AND USE THEREOF” (Mainline Biosciences (Shanghai) Co., Ltd., priority 2023, dated 2025).
Several values for one entry are separate records, joined by “and”; a condition that tells them apart may be missing. Equal entries are not always repeated. Structures can show the parent of a compound that is named as a salt. *1 amine or outer side, *2 acyl side, *3 side chain or, on linkers, in order; H or OH if unused. Where a SMILES comes first, the peptide text is derived from it. Bridges are numbered along the chain shown (N, C = ends). Roman numbers before positions name the chains, in order. [ ]: non-standard residue; d: D form. The star is where a group is joined. Hexanoyl(6-succinimido-3yl) = O=C1CC([*:1])C(=O)N1CCCCCC(=O)[*:2]; Dolaproine = CO[C@@H]([C@@H]1CCCN1)[C@@H](C)C(=O)O; Dil = CC[C@H](C)[C@H](NC)[C@@H](CC(=O)O)OC; PABC = O=C(OCc1ccc(N[*:1])cc1)[*:2]; PEG6 = NCCOCCOCCOCCOCCOCCOCCC(=O)O; X2 = C[C@@H](N*)[C@@H](O)c1ccccc1; Cit = NC(=O)NCCC[C@H](N)C(=O)O; NMeV = CN[C@H](C(=O)O)C(C)C; AEEA = NCCOCCOCC(=O)O

Assays:
[1] = test system: Human multiple myeloma MM.1S cells; experiment: EX3.3 in vivo pharmacodynamics, MM.1S subcutaneous xenograft model; design: species or system CB17 SCID mice; conditions: for Tumor Volume (Mean ± SEM): Ixazomib Citrate 4 mg/kg, Oral Gavage, Twice Weekly
Method: Human multiple myeloma MM.1S cells were suspended and cultured in vitro in 1640 medium containing 10% fetal bovine serum, 100 U/mL penicillin, and 100 µg/mL streptomycin in a 5% CO2 incubator at 37°C. The suspended cells were collected by centrifugation twice a week and adherent cells were digested with trypsin-EDTA to prepare a cell suspension for subculture. When the cell saturation was 80%-90% and the cell number reached the requirement, the cells were collected, counted, and inoculated.
CB17 SCID mice, female, 6-8 weeks old, weighing 18-22 g, provided by Zhejiang Vital River Laboratory Animal Technology Co., Ltd.
Each mouse was subcutaneously injected with 100 µL of PBS containing 5×10^6 MM.1S cells + 100 µL of Matrigel (final volume: 200 µL) at the axilla of the right forelimb. At 20 days after injection, when the average tumor volume reached 109 mm^3, mice were grouped for dosing (vehicle control,Ixazomib Citrate, and Example 1 treatment groups, with 6 animals per group). The Ixazomib Citrate group was orally administered by gavage (4 mg/kg) twice a week; the vehicle control group (5%DMSO + 95% normal saline) and the Example 1 treatment group (1.75 mg/kg) were slowly intravenously injected for about 30 seconds each time, twice a week.
The experimental indicators were used to investigate whether tumor growth was inhibited, delayed, or cured. The tumor diameter was measured twice a week using a vernier caliper. The tumor volume was calculated as follows: V = 0.5a×b^2, where a and b were the long and short diameters of the tumor, respectively.
The anti-tumor efficacy of the drug was evaluated based on TGI (%) or relative tumor proliferation rate T/C (%). TGI (%) was the tumor growth inhibition rate. TGI (%) was calculated as follows: TGI (%)=[(1 -(mean tumor volume at the end of dosing in a certain treatment group - mean tumor volume at the start of dosing in the treatment group))/ (mean tumor volume at the end of dosing in the vehicle control group - mean tumor volume at the start of dosing in the vehicle control group)]× 100%.
T/C (%) was calculated as follows:T/C (%)= TRTV/ CRTV× 100 %. Based on the results of tumor measurement, the relative tumor volume (RTV) was calculated as follows: RTV = Vt/V0, where V0 was the mean tumor volume measured at the time of grouping (i.e. d0), and Vt was the mean tumor volume at a certain measurement. Data on the same day were taken for TRTV and CRTV.
Tumor weights were measured at the end of the experiment and T/Cweight was calculated, where Tweight and Cweight were tumor weights in the treatment and vehicle control groups, respectively.
Statistical analysis, including the mean and standard error (SEM) of tumor volume at each time point in each group (see Table 5-1 in Section 5.2 for specific data), was performed to evaluate differences between groups based on data from the treatment group on Day 18 post-dose at the end of the experiment. A t-test was used for comparison between two groups, and one-way ANOVA was used for comparison among three or more groups. If there was a significant difference in F value, the Games-Howell method was used for testing; if there was no significant difference in F value, the Dunnet (2-sided) method was used for analysis. All data were analyzed using SPSS 17.0.

[2] = biological target: T1, SSTR2 (Homo sapiens, UniProt P30874); experiment: SSTR2 cAMP test; format: cell-based; conditions: for activity at 50 µM: Max Dose 50000 nM; for EC50: SSTR2/CHO cells, Forskolin, cAMP activation rate
T1 construct: expressed in transfected cells; host or cells: CHO cells (SSTR2/CHO)
T1 sequence (P30874 whole entry): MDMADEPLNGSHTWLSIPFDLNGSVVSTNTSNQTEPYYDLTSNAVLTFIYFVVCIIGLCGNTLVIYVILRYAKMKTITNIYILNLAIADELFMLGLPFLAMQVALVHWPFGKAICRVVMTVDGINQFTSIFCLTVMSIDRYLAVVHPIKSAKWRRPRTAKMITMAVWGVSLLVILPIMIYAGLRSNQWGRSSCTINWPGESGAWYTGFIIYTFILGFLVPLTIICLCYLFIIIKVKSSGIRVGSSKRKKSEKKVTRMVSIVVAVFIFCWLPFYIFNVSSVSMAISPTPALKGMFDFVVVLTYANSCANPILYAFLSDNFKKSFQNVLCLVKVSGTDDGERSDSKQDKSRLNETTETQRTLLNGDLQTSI
Method: • 1) Compound preparation: The test compound was diluted by 4-fold with DMSO to obtain 10 different concentration points. Approximately 100 nL of the diluted compound was then transferred to a cell reaction plate and centrifuged for later use. • 2) Cell preparation:The cultured SSTR2/CHO cells were collected into a sterile centrifuge tube, and the supernatant was discarded by centrifugation. • 3) The cells were resuspended in assay buffer, counted using a Vi-cell counter, and diluted with assay buffer. • 4) Approximately 100 nL of 100 µM Forskolin was transferred into the cell reaction plate using an Echo and centrifuged. Then, 10 µL of assay buffer containing the cells was added and incubated. • 5) Approximately 10 µL of cAMP detection reagent solution was added to the corresponding wells of the cell reaction plate, and incubated at room temperature in the dark. • 6) The plate was read using a microplate reader. The final value was determined as the ratio of OD at 665 nm to that at 615 nm. • 7) The cAMP value was calculated for each well: Activity (%)=(signal value of sample well - mean signal value of low-signal control wells)/ (mean signal value of high-signal control wells - mean signal value of low-signal control wells). Fitting was performed using the "Nonlinear regression (curve fit)-log(agonist) vs. response -- Variable slope" model in GraphPad Prism 5.0, with the log-transformed compound concentration on the x-axis and cAMP activation rate on the y-axis. The EC50 value of the sample was calculated accordingly. Table 2: SSTR2 cAMP Test Results

[3] = 18 days after the start of dosing, Ixazomib Citrate 4 mg/kg oral gavage twice a week

CC(C)C[C@H](NC(=O)CNC(=O)c1cc(Cl)ccc1Cl)B1OC(=O)C(CC(=O)O)(CC(=O)O)O1 [Ixazomib Citrate] was tested, and the T/C [1, 3] was 38.38%, the TGI [1, 3] was 71.76% and the “Tumor Volume (Mean ± SEM)” value ([1]; Day 0) was 109 ± 6 mm3. For the same compound, the “Tumor Volume (Mean ± SEM)” value ([1]; Day 4) was 245 ± 23 mm3, the “Tumor Volume (Mean ± SEM)” value ([1]; Day 7) was 337 ± 25 mm3 and the “Tumor Volume (Mean ± SEM)” value ([1]; Day 11) was 452 ± 59 mm3. For the same compound, the “Tumor Volume (Mean ± SEM)” value ([1]; Day 14) was 586 ± 100 mm3, the “Tumor Volume (Mean ± SEM)” value ([1]; Day 18) was 781 mm3 and 781 ± 177 mm3 and the “Tumor Volume (Mean ± SEM)” value ([1]; Day 21) was 925 ± 226 mm3. The “Tumor Volume (Mean ± SEM)” value ([1]; Day 25) was 1,139 ± 271 mm3 and the “Tumor Volume (Mean ± SEM)” value ([1]; Day 28) was 1,365 ± 331 mm3.

For CC[C@H](C)[C@@H]([C@@H](CC(=O)N1CCC[C@H]1[C@H](OC)[C@@H](C)C(=O)N[C@H](C)[C@@H](O)c1ccccc1)OC)N(C)C(=O)[C@@H](NC(=O)[C@H](C(C)C)N(C)C(=O)OCc1ccc(NC(=O)[C@H](CCCNC(N)=O)NC(=O)[C@@H](NC(=O)CCCCCN2C(=O)CC(SC[C@H](NC(C)=O)C(=O)NCCOCCOCCOCCOCCOCCOCCC(=O)N[C@@H](CCCNC(=N)N)C(=O)N[C@@H](CCCNC(=N)N)C(=O)N[C@@H](CC(C)C)C(=O)N[C@@H](Cc3ccccc3)C(=O)N[C@H]3CSSC[C@@H](C(=O)N[C@H](C(=O)N[C@@H](Cc4c[nH]c5ccccc45)C(=O)N[C@@H](CCCNC(=N)N)C(=O)N[C@@H](CC(=O)O)C(N)=O)[C@@H](C)O)NC(=O)[C@H]([C@@H](C)O)NC(=O)[C@H](CCCCN)NC(=O)[C@@H](Cc4c[nH]c5ccccc45)NC(=O)[C@H](Cc4ccc(O)cc4)NC3=O)C2=O)C(C)C)cc1)C(C)C (stereo partly drawn) [Example 3, Ac-Cys(MC-Val-Cit-PABC-MMAE)-PEG6-Arg-Arg-Leu-Phe-[Cys-Tyr-D-Trp-Lys-Thr-Cys]-Thr-Trp-Arg-Asp-NH2] (I: Ac-C[PEG6]RRLFCY[dW]KTCTWRD-NH2 / II: V[Cit][PABC][NMeV]V[Dil][Dolaproine]-X2; linker I:1-II:N via Hexanoyl(6-succinimido-3yl); disulfide I:7-I:12), the activity at 50 µM [2] was 95.4% and the EC50 [2] was 559 nM.

Compound CC(C)C[C@H](NC(=O)[C@H](CCCNC(=N)N)NC(=O)[C@@H](N)CCCNC(=N)N)C(=O)N[C@@H](Cc1ccccc1)C(=O)N[C@H]1CSSC[C@@H](C(=O)N[C@H](C(=O)N[C@@H](Cc2c[nH]c3ccccc23)C(=O)N[C@@H](CCCNC(=N)N)C(=O)N[C@@H](CC(=O)O)C(N)=O)[C@@H](C)O)NC(=O)[C@H]([C@@H](C)O)NC(=O)[C@H](CCCCN)NC(=O)[C@@H](Cc2c[nH]c3ccccc23)NC(=O)[C@H](Cc2ccc(O)cc2)NC1=O [SEQ ID No. 1, H-Arg-Arg-Leu-Phe-[Cys-Tyr-D-Trp-Lys-Thr-Cys]-Thr-Trp-Arg-Asp-NH2] (H-RRLFCY[dW]KTCTWRD-NH2; disulfide 5-10) has an activity at 100 µM ([2]; Max Dose 100000 nM) of 98% and an EC50 [2] of 217 nM.

In the case of C[C@@H](O)[C@@H]1NC(=O)[C@H](CCCCN)NC(=O)[C@H](Cc2c[nH]c3ccccc23)NC(=O)[C@H](Cc2ccccc2)NC(=O)[C@H](Cc2ccccc2)NC(=O)[C@H](CC(N)=O)NC(=O)[C@H](CCCCN)NC(=O)[C@@H](NC(=O)[C@@H]2CCCN2)CSSC[C@@H](C(=O)N[C@@H](CCCCN)C(=O)O)NC(=O)[C@H](CO)NC(=O)[C@H](CO)NC(=O)[C@H](Cc2ccccc2)NC1=O [Cortistatin14, reference compound] (H-PCKNFFWKTFSSCK-OH; disulfide 2-13), the activity at 1 µM ([2]; Max Dose 1000 nM) is reported as 99.7% and the EC50 [2] is reported as 1.38 nM.

CC(C)C[C@H](NC(=O)[C@H](CCCNC(=N)N)NC(=O)[C@@H](N)CCCNC(=N)N)C(=O)N[C@@H](Cc1ccccc1)C(=O)N[C@H]1CSSC[C@@H](C(=O)N[C@H](C(=O)N[C@@H](Cc2c[nH]c3ccccc23)C(=O)N[C@@H](CCCNC(=N)N)C(=O)N[C@@H](CC(=O)O)C(N)=O)[C@@H](C)O)NC(=O)[C@H]([C@@H](C)O)NC(=O)[C@H](CCCCN)NC(=O)[C@@H](Cc2c[nH]c3ccccc23)NC(=O)[C@H](Cc2ccccc2)NC1=O [SEQ ID No. 2, H-Arg-Arg-Leu-Phe-[Cys-Phe-D-Trp-Lys-Thr-Cys]-Thr-Trp-Arg-Asp-NH2] (H-RRLFCF[dW]KTCTWRD-NH2; disulfide 5-10) was tested, and the activity at 150 µM ([2]; Max Dose 150000 nM) was 99.1% and the EC50 [2] was 35.4 nM.

Work on CC[C@H](C)[C@@H]([C@@H](CC(=O)N1CCC[C@H]1[C@H](OC)[C@@H](C)C(=O)N[C@H](C)[C@@H](O)c1ccccc1)OC)N(C)C(=O)[C@@H](NC(=O)[C@H](C(C)C)N(C)C(=O)OCc1ccc(NC(=O)[C@H](CCCNC(N)=O)NC(=O)[C@@H](NC(=O)CCCCCN2C(=O)CC(SC[C@H](NC(C)=O)C(=O)NCCOCCOCC(=O)NCCOCCOCC(=O)NCCOCCOCC(=O)N[C@@H](CCCNC(=N)N)C(=O)N[C@@H](CCCNC(=N)N)C(=O)N[C@@H](CC(C)C)C(=O)N[C@@H](Cc3ccccc3)C(=O)N[C@H]3CSSC[C@@H](C(=O)N[C@H](C(=O)N[C@@H](Cc4c[nH]c5ccccc45)C(=O)N[C@@H](CCCNC(=N)N)C(=O)N[C@@H](CC(=O)O)C(N)=O)[C@@H](C)O)NC(=O)[C@H]([C@@H](C)O)NC(=O)[C@H](CCCCN)NC(=O)[C@@H](Cc4c[nH]c5ccccc45)NC(=O)[C@H](Cc4ccccc4)NC3=O)C2=O)C(C)C)cc1)C(C)C (stereo partly drawn) [Example 8, Ac-Cys(MC-Val-Cit-PABC-MMAE)-AEEA-AEEA-AEEA-Arg-Arg-Leu-Phe-[Cys-Phe-D-Trp-Lys-Thr-Cys]-Thr-Trp-Arg-Asp-NH2] (I: Ac-C[AEEA][AEEA][AEEA]RRLFCF[dW]KTCTWRD-NH2 / II: V[Cit][PABC][NMeV]V[Dil][Dolaproine]-X2; linker I:1-II:N via Hexanoyl(6-succinimido-3yl); disulfide I:9-I:14) yielded an activity at 50 µM [2] of 98.4% and an EC50 [2] of 404 nM.
